From patent US20260242343A1, “COMPOUND SERVING AS DDR1 KINASE INHIBITOR, AND MEDICINE” (NIPPON SHINYAKU CO., LTD., priority 2022, published 2026) come the findings set out here.

For experiment [1], the target named is T1, DDR1 kinase in DDR1-expressing U2OS cells (Homo sapiens, UniProt Q08345).
T1 construct: host or cells: U2OS
Kind of experiment: DDR1 kinase inhibitory effect in DDR1-expressing U2OS cells (PathHunter, type I collagen stimulation). The conditions noted are these: type I collagen 50 μg/mL, 10% FBS, read-out: DDR-1 IC50. The format is cell-based. The method, then: Test compounds in DMSO were prepared at 10 mM and diluted with DMSO to final concentrations of 1000, 100, 10, 1, and 0.1 μM. These solutions were diluted further with E-MEM medium (Fujifilm Wako Pure Chemical Industries, 051-07615) containing 10% fetal bovine serum (FBS, Gibco, 10270106) to 60,000, 6,000, 600, 60, 6, and 0.6 nM to obtain test sample solutions.
DDR1-expressing U2OS cells (DiscoverX, 93-0894C3) suspended at 2.5×10^5 cells/mL in 10% FBS+E-MEM medium were seeded in 384-well plates (DiscoverX, 92-0013) in 20 μL portions and cultured overnight at 37° C. and 5% CO2.
The next day, the test sample solutions as prepared were added at 5 μL/well to final concentrations of 10,000, 1,000, 100, 10, 1, and 0.1 nM. After incubation at 37° C. and 5% CO2 for 1 hour, type I collagen (Nitta Gelatin, 631-00771) was added at 5 μL/well to a final concentration of 50 μg/mL, and cultured overnight at 37° C. and 5% CO2.
The next day, the plate was left at room temperature for 1 hour, after which 5 μL/well of detection solution was added according to the instruction manual for the PathHunter (registered trademark) Detection Kit (DiscoverX, 93-0001). […] The test was performed in duplicate.

The subject of experiment [2] is anti-glomerular basement membrane antibody-induced nephritis model. Kind of experiment: In vivo efficacy study using anti-glomerular basement membrane antibody-induced nephritis model. The conditions noted are these: rat, 24-hour urine. On the set-up: species or system WKY/NCrlCrlj rats. The method, then: The test compound was weighed and suspended in 0.5% methylcellulose (Shin-Etsu Chemical Co., Ltd.)+99.5% Otsuka distilled water (Otsuka Pharmaceutical Factory) to prepare a test sample solution for administration. 300 μL of phosphate buffered saline (Wako, 045-29795) containing 33.3 μg/mL anti-glomerular basement membrane antibody (Chondrex, 70221) was intravenously administered into the tail vein of WKY/NCrlCrlj rats (7-week-old males). 7 days after, the test sample was administered twice a day for 7 days, and the rats were moved to a metabolism/urine collection cage from the 6th to 7th days of the starting of the administration, and the 24-hour urine was collected. The weight of the collected urine was measured. 150 μL of urine was transferred to a sample cup (650-M, BMBio ST). The albumin concentration in urine was measured using a JCA-BM6050 automatic analyzer (JEOL). The amount of albumin in urine was determined with correction for the measured urine weight. The amounts of albumin in urine in the group without administration of anti-glomerular basement membrane antibody and the group with administration of vehicle were set at 0% and 100%, respectively, and the ratio of the amount of albumin in urine in the group administered with the test compound was calculated.

For another experiment, the target named is T2, DDR1 protein (Homo sapiens, UniProt Q08345).
T2 construct: purchased Carna Biosciences 08-113
Kind of experiment: Evaluation of DDR1 kinase inhibitory activity (LANCE Ultra TR-FRET). In kind it is biochemical. The conditions noted are these: DDR1 protein 0.5 nM, ATP 100 μM, 2 hours at room temperature; read-out: DDR-1 IC50. The method, then: The test was performed in duplicate.

[3] abbreviates: dose 50 mg/kg twice a day for 7 days.

Structures can show the parent of a compound that is named as a salt.

T2 sequence (Q08345 19-876 isoform Q08345-2 limits assumed): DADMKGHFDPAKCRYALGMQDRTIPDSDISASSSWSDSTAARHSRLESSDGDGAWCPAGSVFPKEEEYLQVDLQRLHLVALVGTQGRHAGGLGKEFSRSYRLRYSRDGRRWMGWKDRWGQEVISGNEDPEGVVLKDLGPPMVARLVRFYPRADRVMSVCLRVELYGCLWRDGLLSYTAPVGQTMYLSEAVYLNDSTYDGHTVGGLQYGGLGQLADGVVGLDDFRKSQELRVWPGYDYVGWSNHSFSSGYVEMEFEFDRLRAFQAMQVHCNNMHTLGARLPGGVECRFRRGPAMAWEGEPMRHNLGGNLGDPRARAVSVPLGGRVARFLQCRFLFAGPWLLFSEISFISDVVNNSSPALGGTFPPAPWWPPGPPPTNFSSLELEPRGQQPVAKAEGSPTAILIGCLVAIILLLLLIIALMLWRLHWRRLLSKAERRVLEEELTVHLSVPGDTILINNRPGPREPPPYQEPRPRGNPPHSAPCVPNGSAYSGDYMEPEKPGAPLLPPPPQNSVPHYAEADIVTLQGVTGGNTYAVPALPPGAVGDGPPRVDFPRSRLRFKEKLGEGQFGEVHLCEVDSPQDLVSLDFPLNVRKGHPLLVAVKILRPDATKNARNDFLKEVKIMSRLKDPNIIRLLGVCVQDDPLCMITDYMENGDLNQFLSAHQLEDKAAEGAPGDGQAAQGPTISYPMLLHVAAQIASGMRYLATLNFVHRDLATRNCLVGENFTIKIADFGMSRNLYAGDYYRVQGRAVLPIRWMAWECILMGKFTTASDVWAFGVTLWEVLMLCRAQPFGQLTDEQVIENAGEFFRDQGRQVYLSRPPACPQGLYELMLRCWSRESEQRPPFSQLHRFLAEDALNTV
T1 sequence (Q08345 19-913): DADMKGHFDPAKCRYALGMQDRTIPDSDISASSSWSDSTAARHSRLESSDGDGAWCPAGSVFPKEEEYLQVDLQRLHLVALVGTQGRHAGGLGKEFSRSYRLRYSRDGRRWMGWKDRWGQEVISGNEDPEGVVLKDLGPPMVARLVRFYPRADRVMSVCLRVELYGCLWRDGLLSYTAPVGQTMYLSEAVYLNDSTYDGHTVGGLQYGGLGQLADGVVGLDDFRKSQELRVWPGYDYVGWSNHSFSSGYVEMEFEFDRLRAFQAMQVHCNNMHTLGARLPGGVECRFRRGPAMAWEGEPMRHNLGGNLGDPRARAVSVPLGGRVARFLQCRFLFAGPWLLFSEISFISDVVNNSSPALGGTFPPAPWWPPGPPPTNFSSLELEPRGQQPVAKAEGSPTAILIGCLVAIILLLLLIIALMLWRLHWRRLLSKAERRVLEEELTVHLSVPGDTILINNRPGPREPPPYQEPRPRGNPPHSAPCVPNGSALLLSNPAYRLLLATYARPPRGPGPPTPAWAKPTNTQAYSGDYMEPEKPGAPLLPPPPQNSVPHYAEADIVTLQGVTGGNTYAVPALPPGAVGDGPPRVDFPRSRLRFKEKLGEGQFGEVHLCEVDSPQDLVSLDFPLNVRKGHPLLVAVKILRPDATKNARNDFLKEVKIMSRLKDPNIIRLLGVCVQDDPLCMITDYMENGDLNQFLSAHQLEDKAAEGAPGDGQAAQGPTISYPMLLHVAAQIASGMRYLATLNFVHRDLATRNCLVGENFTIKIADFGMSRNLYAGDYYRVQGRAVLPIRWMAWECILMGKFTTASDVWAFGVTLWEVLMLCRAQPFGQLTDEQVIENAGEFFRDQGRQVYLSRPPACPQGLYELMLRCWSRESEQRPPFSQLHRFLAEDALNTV

One may read the IC50 as the concentration that gives 50% inhibition. For `O=C(N[C@H]1C[C@H](OC(F)(F)F)C[C@@H]1O)c1ccc(OC(F)F)c(C#Cc2cncnc2)c1` [Example 1, 4-(Difluoromethoxy)-N-[(1S,2S,4S)-2-hydroxy-4-(trifluoromethoxy)cyclopentyl]-3-[(pyrimidin-5-yl)ethynyl]benzamide], the IC50 is 0.029 µM in experiment [1] and 0.007 µM at DDR1 protein. For the same compound, in experiment [2] (setting [3]), the “Urinary albumin (% of vehicle-administered group)” value is on record as 70 % of vehicle-administered grou.
As for `Nc1ncc(C#Cc2cc(C(=O)N[C@H]3C[C@H](OC(F)(F)F)C[C@@H]3O)ccc2OC(F)F)cn1` [Example 3, 3-[2-(2-Aminopyrimidin-5-yl)ethynyl]-4-(difluoromethoxy)-N-[(1S,2S,4S)-2-hydroxy-4-(trifluoromethoxy)cyclopentyl]benzamide], the IC50 was 0.0036 µM in experiment [1] and 0.00086 µM on DDR1 protein. In experiment [2] (setting [3]), the “Urinary albumin (% of vehicle-administered group)” value was 78 % of vehicle-administered grou.
With `Nc1cnc(C#Cc2cc(C(=O)N[C@H]3C[C@H](OC(F)(F)F)C[C@@H]3O)ccc2OC(F)F)cn1` [Example 4, 3-[2-(5-Aminopyrazin-2-yl)ethynyl]-4-(difluoromethoxy)-N-[(1S,2S,4S)-2-hydroxy-4-(trifluoromethoxy)cyclopentyl]benzamide], the IC50 was 0.018 µM in experiment [1] and 0.00056 µM on DDR1 protein. Besides, the “Urinary albumin (% of vehicle-administered group)” value in experiment [2] (dose 25 mg/kg twice a day for 7 days) was 69 % of vehicle-administered grou.
For the compound `COc1nc(N)ncc1C#Cc1cc(C(=O)N[C@H]2C[C@H](OC(F)(F)F)C[C@@H]2O)ccc1OC(F)F` [Example 5, 3-[2-(2-Amino-4-methoxypyrimidin-5-yl)ethynyl]-4-(difluoromethoxy)-N-[(1S,2S,4S)-2-hydroxy-4-(trifluoromethoxy)cyclopentyl]benzamide], the IC50 in experiment [1] worked out at 0.0018 µM; at DDR1 protein, 0.00025 µM. Also, the “Urinary albumin (% of vehicle-administered group)” value in experiment [2] (dose 10 mg/kg twice a day for 7 days) is recorded as 57 % of vehicle-administered grou.
Turning to `Cn1cc(C#Cc2cc(C(=O)N[C@H]3C[C@H](OC(F)(F)F)C[C@@H]3O)ccc2OC(F)F)cn1` [Example 6, 4-(Difluoromethoxy)-N-[(1S,2S,4S)-2-hydroxy-4-(trifluoromethoxy)cyclopentyl]-3-[2-(1-methyl-1H-pyrazol-4-yl)ethynyl]benzamide], the concentration for half-maximal inhibition (IC50) came out at 0.058 µM in experiment [1] and 0.00039 µM on DDR1 protein. Also, the “Urinary albumin (% of vehicle-administered group)” value in experiment [2] (dose 5 mg/kg twice a day for 7 days) is on record as 72 % of vehicle-administered grou.
Turning to `Nc1cnc(C#Cc2cc(C(=O)N[C@H](CO)CCOC(F)(F)F)ccc2OC(F)F)cn1` [Example 7, 3-[2-(5-Aminopyrazin-2-yl)ethynyl]-4-(difluoromethoxy)-N-[(2S)-1-hydroxy-4-(trifluoromethoxy)butan-2-yl]benzamide], the IC50 in experiment [1] amounted to 0.05 µM; at DDR1 protein, 0.0044 µM. In experiment [2] (dose 30 mg/kg twice a day for 7 days), the “Urinary albumin (% of vehicle-administered group)” value was 69 % of vehicle-administered grou.
For the compound `Nc1ncc(C#Cc2cc(C(=O)N[C@H](CO)Cc3ccc(Cl)cc3)ccc2OC(F)F)cn1` [Example 35, 3-[2-(2-Aminopyrimidin-5-yl)ethynyl]-N-[(2S)-1-(4-chlorophenyl)-3-hydroxypropan-2-yl]-4-(difluoromethoxy)benzamide hydrochloride], the IC50 in experiment [1] is 0.012 µM; at DDR1 protein, 0.0033 µM.
For `Nc1ncc(C#Cc2cc(C(=O)N[C@H](CO)c3ccccc3)ccc2OC(F)F)cn1` [Example 36, 3-[2-(2-Aminopyrimidin-5-yl)ethynyl]-4-(difluoromethoxy)-N-[(1S)-2-hydroxy-1-phenylethyl]benzamide hydrochloride], in that order: 0.23 µM and 0.0086 µM.
In the same order, the values of `Nc1ncc(/C(F)=C/c2cc(C(=O)N[C@H]3CC(F)(F)CC[C@@H]3O)ccc2OC(F)F)cn1` [Example 37, 3-[(1Z)-2-(2-Aminopyrimidin-5-yl)-2-fluoroethenyl]-N-[(1S,2S)-5,5-difluoro-2-hydroxycyclohexyl]-4-(difluoromethoxy)benzamide] are 0.04 µM and 0.015 µM.
Consider `Nc1ncc(/C(F)=C/c2cc(C(=O)N[C@H]3CCCC[C@@H]3O)ccc2OC(F)F)cn1` [Example 38, 3-[(1Z)-2-(2-Aminopyrimidin-5-yl)-2-fluoroethenyl]-4-(difluoromethoxy)-N-[(1S,2S)-2-hydroxycyclohexyl]benzamide], for which the IC50 in experiment [1] stood at 0.099 µM; at DDR1 protein it was 0.012 µM.
In the same order, the values of `Nc1ncc(/C=C(\F)c2cc(C(=O)N[C@H]3C[C@H](OC(F)(F)F)C[C@@H]3O)ccc2OC(F)F)cn1` [Example 39, 3-[(1Z)-2-(2-Aminopyrimidin-5-yl)-1-fluoroethenyl]-4-(difluoromethoxy)-N-[(1S,2S,4S)-2-hydroxy-4-(trifluoromethoxy)cyclopentyl]benzamide] are 0.0039 µM and 0.00039 µM.
Take `Nc1ncc(/C=C(\F)c2cc(C(=O)N[C@H]3CC4(CC4)C[C@@H]3O)ccc2OC(F)F)cn1` [Example 40, 3-[(1Z)-2-(2-Aminopyrimidin-5-yl)-1-fluoroethenyl]-4-(difluoromethoxy)-N-[(5S,6S)-6-hydroxyspiro[2.4]heptan-5-yl]benzamide]: the IC50 in experiment [1] was determined as 0.0056 µM; on DDR1 protein, 0.00048 µM.
For `NC(=O)c1ncc2cc(-c3cc(C(=O)N[C@H]4CC(F)(F)CC[C@@H]4O)cnc3C(F)(F)F)ccn12` [Example 41, 5-{3-Carbamoylimidazo[1,5-a]pyridin-7-yl}-N-[(1S,2S)-5,5-difluoro-2-hydroxycyclohexyl]-6-(trifluoromethyl)pyridine-3-carboxamide], the IC50 in experiment [1] came to 0.35 µM; on DDR1 protein it was 0.06 µM.
For the compound `CCc1ccc(C(=O)N[C@H]2C[C@H](OC(F)(F)F)C[C@@H]2O)cc1NC(=O)c1cncc(OCC2CC2)c1` [Example 42, 5-(Cyclopropylmethoxy)-N-(2-ethyl-5-{[(1S,2S,4S)-2-hydroxy-4-(trifluoromethoxy)cyclopentyl]carbamoyl}phenyl)pyridine-3-carboxamide], the figures for the IC50 (in experiment [1]; on DDR1 protein) were 0.054 µM and 0.0016 µM, respectively.
In the case of `CCc1ccc(C(=O)N[C@H](CO)CCOC(F)(F)F)cc1NC(=O)c1cncc(OCC2CC2)c1` [Example 43, 5-(Cyclopropylmethoxy)-N-(2-ethyl-5-{[(2S)-1-hydroxy-4-(trifluoromethoxy)butan-2-yl]carbamoyl}phenyl)pyridine-3-carboxamide], the values for the half-maximal inhibitory concentration (IC50) (in experiment [1]; on DDR1 protein) were 0.24 µM and 0.068 µM, respectively.
For `CCc1ccc(C(=O)N[C@H](CO)CCOC(F)(F)F)cc1NC(=O)c1cnc(NCC2CC2)s1` [Example 44, 2-[(Cyclopropylmethyl)amino]-N-(2-ethyl-5-{[(2S)-1-hydroxy-4-(trifluoromethoxy)butan-2-yl]carbamoyl}phenyl)-1,3-thiazole-5-carboxamide], in that order: 0.015 µM and 0.0094 µM.
For `CCc1ccc(C(=O)N[C@H]2C[C@H](OC(F)(F)F)C[C@@H]2O)cc1NC(=O)c1cnc(NCC2CC2)s1` [Example 45, 2-[(Cyclopropylmethyl)amino]-N-(2-ethyl-5-{[(1S,2S,4S)-2-hydroxy-4-(trifluoromethoxy)cyclopentyl]carbamoyl}phenyl)-1,3-thiazole-5-carboxamide], in that order: 0.0068 µM and 0.0013 µM.
With `CCc1ccc(C(=O)N[C@H]2C[C@H](OC(F)(F)F)C[C@@H]2O)cc1NC(=O)c1cnc(C2CC2)s1` [Example 46, 2-Cyclopropyl-N-(2-ethyl-5-{[(1S,2S,4S)-2-hydroxy-4-(trifluoromethoxy)cyclopentyl]carbamoyl}phenyl)-1,3-thiazole-5-carboxamide], the figures for the IC50 (in experiment [1]; at DDR1 protein) were 0.044 µM and 0.0091 µM, respectively.
In the case of `CCc1ccc(C(=O)N[C@H](CO)CCOC(F)(F)F)cc1NC(=O)c1cnc(CC2CC2)s1` [Example 47, 2-(Cyclopropylmethyl)-N-(2-ethyl-5-{[(2S)-1-hydroxy-4-(trifluoromethoxy)butan-2-yl]carbamoyl}phenyl)-1,3-thiazole-5-carboxamide], the IC50 in experiment [1] worked out at 0.059 µM; on DDR1 protein it was 0.051 µM.
